Assay results published in patent US20040038861A1, “Methods and compositions for normalizing lipid levels in mammalian tissues” (priority 2001, published 2004).

How the values were obtained:
soleus muscle [1] = experiment: Triglyceride and free fatty acid content (enzymatic) in isolated soleus muscle of rats fed high fat diets; format: cell-based, rat; conditions: 1 h
Excerpt: (§1) High-fatted rats. Groups of male Wistar rats (n=21/diet) were ad libitum fed high-fat diets containing standard rat chow to which 40% (w/w) of lard, corn oil or olive oil had been added, from the time of weaning (age=21 d) until sacrifice at 50 d. Triacylglycerol from lard contains predominantly saturated fatty acids; that from corn oil […], see Table 4.
(§2) Soleus muscle tissue isolation and incuhation.Immersion and incubation media was Krebs-Henseleit buffer (KHB) containing 118.5 mM NaCl, 4.75 mM KCl, 1.18 mM MgSO4.7H2O and KH2PO4, 24.8 mM NaHCO3, 2.54 mM CaCl2 and 10 mM d-glucose. The medium was gassed continuously with 95% O2/5% CO2. […] Soleus muscles of both legs were excised keeping the tissue immersed in KHB; muscles were separated into two equal parts and transferred to the incubation flasks. At the completion of incubation the muscles were snap frozen in liquid nitrogen, and then trimmed of connective tissue and all visible fat. The muscle strips were stored at −80° C. until analysis.
(§3) Lipid extraction and chromatographic separation of fatty acids. Total lipids were extracted from muscle strips by a modified version of the method of Bligh and Dyer (Gorski et al., 1988, Mol & Cell Biochem 178:113-118; 1. Bligh et al., 1959, Can J Biochem Physiol 37: 911-917). Muscles were homogenised (Soniprep 150) in 0.4 ml of deionised water. Solvent volumes used herein were varied according to the water content of the muscle (ie muscle weight) as described (Bligh & Dyer, supra). 2 vols of methanol containing 0.005% butylated hydroxy toluene (BHT) and 1 vol chloroform were added to the muscle suspension. Homogenates were vortexed at maximum speed for 2 minutes and centrifuged at 2,500 g for 4 minutes. Supernatants were recovered and pellets re-extracted with 2 vol methanol, 1 vol chloroform and 0.8 vol 0.2 N HCl. Residues were vortexed for 2 min then centrifuged at 3,500 g for 3 min. After centrifugation the combined supernatants were diluted with 2v each of milli Q water and chloroform and the phases separated by centrifugation at 3,500 g for 4 minutes. The lower chloroform phase was recovered, neutralised by dropwise addition of 0.2 N methanolic NH4OH and evaporated down in a stream of N2. The samples were stored at −80° C. until required.
(§4) Aminopropyl phase (250 mg) was packed into 16 ml teflon columns with teflon frits placed at the top and bottom of the bonded phase. Columns were placed in a Vac Elut apparatus and washed twice with 2 ml portions of hexane (Prasad et al., 1988, J Chromato 428: 221-228; Kaluzny et al., 1985, J Lipid Res 26: 135-140). The dry lipid samples were taken up in two 0.150 ml portions of chloroform and applied to the column under atmospheric pressure. After adsorption the neutral lipids were eluted with 4 ml of chloroform-2-propanol (2:1, v/v) and the free fatty acids eluted with 4 ml of 2% acetic acid in diethyl ether. The solvent containing the free fatty acids was dried under a stream of N2.
Determination of tissue free fatty acids and triacylglycerol concentration by enzymatic analyses. Free fatty acids were separated from total lipid, evaporated under a stream of N2 and stored at −80° C. until analysis. Samples were dissolved in 50 μl of warm ethanol (35-40° C.), and 0.625 ml of a Triton X-100 (6% w/v) solution was added once the ethanol reached room temperature. The solution was stirred for 30 min, then made up to 0.825 ml with the Triton solution. Free fatty acids were quantified using a commercial method (Boehringer Mannheim) adapted for micro analyses (Cobas Mira, Roche Diagnostics), with palmitic acid standards. Triacyl glycerol levels were quantified in the total lipid fraction (Pointe Scientific) with a glycerol standard.
Total lipid was extracted and quantitated. Results are shown in FIGS. 18A NEFA and 18B triglyceride.

soleus muscle [2] = experiment: Lipid metabolites (free fatty acid, glycerol, triglyceride; enzymatic analysis) in isolated soleus muscle from normally fed rats; format: cell-based, rat
soleus muscle [3] = experiment: Individual free fatty acids by gas chromatography in soleus muscle of rats fed high fat diets; parameters: species or system rat; conditions: 1 hour, GC
Excerpt: as §1, §2, §3, §4
Gas-liquid chromatographic analysis. Dry free fatty acid residues were processed for derivatisation of methyl esters by the boron trifluoride-methanol method (Prasad, supra). 1 ml of boron trifluoride in methanol (BF3) was added to each sample, the sample vials were heated at 70° C. for 5 minutes, shaken vigorously, and baked for a further 10 minutes. Once the samples reached room temperature 0.5 ml milli Q water was added, the sample vials shaken, 0.1 ml heptane was added and the sample shaken again. 0.05 ml of the top heptane layer was removed for GLC analysis. A Model HP5890 Plus Series 2 (Hewlett-Packard) gas chromatograph equipped with a DB-225 column was used to separate the methyl esters of the fatty acids and a Model HP 5890 GC with a Model HP 5973 MS (Hewlett-Packard) GC/MS used to confirm the identity of individual free fatty acids. […]

[4] = rats fed diet high in olive oil

## rat CGRP-1
Soleus muscle [1]; diet with 40% added lard, 100 nM amylin or CGRP-1, 4.4 μM norepinephrine, control 1.14±0.16
  soleus muscle triglyceride content: 0.75 ± 0.08 µmol/g
Soleus muscle [1]; diet with 40% added lard, 100 nM amylin or CGRP-1, 4.4 μM norepinephrine, control 43±8
  soleus muscle free fatty acid content: 64 ± 7 nmol/g
Soleus muscle [1]; diet with 40% corn oil, 100 nM, control 0.89±0.06 μmol/g
  soleus muscle triglyceride content: 0.48±0.06 [mol/g
Soleus muscle [1]; diet with 40% corn oil, 100 nM, control 35±4
  soleus muscle free fatty acid content: 99 ± 17 nmol/g
Soleus muscle [1]; diet with 40% olive oil, 100 nM, control 0.83±0.1
  soleus muscle triglyceride content: 0.52 ± 0.08 µmol/g
Soleus muscle [1]; diet with 40% olive oil, 100 nM, control 15±3
  soleus muscle free fatty acid content: 55 ± 14 nmol/g
Soleus muscle [2]; 1 pM CGRP, 1 h (FIG. 3C)
  soleus muscle free fatty acid concentration, agonist alone: 166 ± 18 nmol/g
Soleus muscle [2]; 100 nM, 1 h, normal-fed rats (FIG. 3A, 3B)
  soleus muscle free fatty acid content, agonist alone: 334 ± 52 nmol/g
Soleus muscle [2]; soleus, normally fed rats, 60-min, 100 nM amylin or CGRP-1, 4.4 μM norepinephrine, control 1.17±0.15, not significant
  triacylglycerol (triglyceride) content: 1.9 ± 0.23 µmol/g
Soleus muscle [2]; soleus, normally fed rats, 1 h, 100 nM amylin or CGRP-1, 4.4 μM norepinephrine, control 0.07±0.007
  intramuscular glycerol content: 0.04 ± 0.008 nmol/g
Soleus muscle [3]; rats fed diet high in corn oil
  free fatty acid adrenic C22:4: 0.04 ± 0.002 nmol/g wwt
  free fatty acid arachidic C20:0: 0.03 ± 0.005 nmol/g wwt
  free fatty acid arachidonic C20:4: 0.02 ± 0.002 nmol/g wwt
  free fatty acid cervonic C22:6: 0.03 ± 0.003 nmol/g wwt
  free fatty acid linoleic C18:2: 0.18 ± 0.008 nmol/g wwt
  free fatty acid linolenic C18:3: 0.17 ± 0.01 nmol/g wwt
  free fatty acid margaric C17:0: 0.02 ± 0.003 nmol/g wwt
  free fatty acid myristic C14:0: 0.03 ± 0.02 nmol/g wwt
  free fatty acid oleic C18:1: 0.16 ± 0.01 nmol/g wwt
  free fatty acid palmitic C16:0: 0.16 ± 0.03 nmol/g wwt
  free fatty acid palmitoleic (n-7) C16:1: 0.01 ± 0.0008 nmol/g wwt
  free fatty acid palmitoleic (n-9) C16:1: 0.20 ± 0.008 nmol/g wwt
  free fatty acid pentadecanoic C15:0: 0.04 ± 003 nmol/g wwt
  free fatty acid stearic C18:0: 0.39 ± 0.02 nmol/g wwt
  free fatty acid timnodonic C20:5: 0.04 ± 0.001 nmol/g wwt
  free fatty acid vaccenic C18:1: 0.02 ± 0.004 nmol/g wwt
Soleus muscle [3]; rats fed diet high in lard
  free fatty acid adrenic C22:4: 0.04 ± 0.005 nmol/g wwt
  free fatty acid arachidic C20:0: 0.07 ± 0.004 nmol/g wwt
  free fatty acid arachidonic C20:4: 0.02 ± 0.001 nmol/g wwt
  free fatty acid cervonic C22:6: 0.015 ± 0.002 nmol/g wwt
  free fatty acid linoleic C18:2: 0.23 ± 0.005 nmol/g wwt
  free fatty acid margaric C17:0: 0.09 ± 0.01 nmol/g wwt
  free fatty acid myristic C14:0: 0.03 ± 0.007 nmol/g wwt
  free fatty acid oleic C18:1: 0.25 ± 0.02 nmol/g wwt
  free fatty acid palmitic C16:0: 0.24 ± 0.01 nmol/g wwt
  free fatty acid palmitoleic (n-7) C16:1: 0.02 ± 0.005 nmol/g wwt
  free fatty acid palmitoleic (n-9) C16:1: 0.03 ± 0.003 nmol/g wwt
  free fatty acid pentadecanoic C15:0: 0.14 ± 0.01 nmol/g wwt
  free fatty acid stearic C18:0: 0.35 ± 0.06 nmol/g wwt
  free fatty acid timnodonic C20:5: 0.02 ± 0.002 nmol/g wwt
  free fatty acid vaccenic C18:1: 0.03 ± 0.006 nmol/g wwt
Soleus muscle [3]; [4]
  free fatty acid adrenic C22:4: 0.03 ± 0.006 nmol/g wwt
  free fatty acid arachidic C20:0: 0.04 ± 0.001 nmol/g wwt
  free fatty acid arachidonic C20:4: 0.02 ± 0.007 nmol/g wwt
  free fatty acid cervonic C22:6: 0.11 ± 0.03 nmol/g wwt
  free fatty acid linoleic C18:2: 0.06 ± 0.01 nmol/g wwt
  free fatty acid linolenic C18:3: 0.03 ± 0.0009 nmol/g wwt
  free fatty acid margaric C17:0: 0.03 ± 0.012 nmol/g wwt
  free fatty acid myristic C14:0: 0.015 ± 0.0009 nmol/g wwt
  free fatty acid oleic C18:1: 0.34 ± 0.01 nmol/g wwt
  free fatty acid palmitic C16:0: 0.20 ± 0.006 nmol/g wwt
  free fatty acid palmitoleic (n-7) C16:1: 0.02 ± 0.002 nmol/g wwt
  free fatty acid palmitoleic (n-9) C16:1: 0.27 ± 0.013 nmol/g wwt
  free fatty acid pentadecanoic C15:0: 0.08 ± 002 nmol/g wwt
  free fatty acid stearic C18:0: 0.12 ± 0.004 nmol/g wwt
  free fatty acid timnodonic C20:5: 0.01 ± 0.001 nmol/g wwt
  free fatty acid vaccenic C18:1: 0.17 ± 0.008 nmol/g wwt
